A word on the IC50: it is the point on the concentration scale where inhibition reaches its midpoint.

The values below come from patent publication US10287292B2, “CXCR7 antagonists” (CHEMOCENTRYX, INC., priority 2012, dated 2019).

This assay deals with CXCR7 receptor (Homo sapiens (Human), UniProt P25106). In words: Serum Binding Analysis: displacement of 125I-labeled SDF-1 from CXCR7 in 100% human serum. Conditions: 125I SDF-1 displacement in 100% human serum, MCF-7 and/or MDA-MB-435S CXCR7 transfected cells, 3 hrs at 4° C.; read-out: Avg Ser IC50. Here is the method: The compounds were combined with cells expressing the CXCR7 receptor (e.g., MCF cells or cells transfected to express CXCR7) in the presence of the 125 I-labeled SDF-1 chemokine as detailed in Determination of IC50 values. Reagents and Cells (see below). The ability of the compounds to displace the labeled chemokine from the CXCR7 receptor sites at multiple concentrations was then determined with the screening process.
Chain of CXCR7 receptor (P25106 whole entry): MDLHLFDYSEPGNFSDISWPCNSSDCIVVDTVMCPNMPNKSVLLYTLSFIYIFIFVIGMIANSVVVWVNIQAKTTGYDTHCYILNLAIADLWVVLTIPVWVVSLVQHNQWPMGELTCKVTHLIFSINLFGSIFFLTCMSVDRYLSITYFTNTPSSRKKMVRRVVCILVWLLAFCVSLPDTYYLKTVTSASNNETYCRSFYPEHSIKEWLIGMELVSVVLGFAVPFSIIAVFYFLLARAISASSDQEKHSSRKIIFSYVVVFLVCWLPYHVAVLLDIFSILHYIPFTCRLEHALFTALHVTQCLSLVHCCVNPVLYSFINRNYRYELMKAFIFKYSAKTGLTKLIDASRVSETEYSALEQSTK
In Table 1, Avg Bind IC50 refers to the Buffer Binding Analysis described below, while Avg Ser IC50 refers to the Serum Binding Analysis described below. All compounds were prepared as described in the Examples above, or by related methods substituting readily available starting materials.
^125I-labeled SDF-1 was purchased from Perkin-Elmer Life Sciences, Inc. (Boston, Mass.). The MCF-7 (adenocarcinoma; mammary gland) cell line was obtained from the American Type Culture Collection (ATCC, Manassas, Va.) or and was cultured in DMEM (Mediatech, Herndon, Va.) supplemented with 10% fetal bovine serum (FBS) (HyClone Logan, Utah) and bovine insulin (0.01 mg/mL) (Sigma. St. Louis, Mo.) at 37° C. in a humidified incubator at a 5% CO2/air mixture. CXCR7 transfected MDA-MB-435S were produced as described below. MDA-MB-435S human breast cancer line, was purchased from ATCC, and cultured in DMEM/10% FBS medium. The complete coding sequence of the gene encoding CXCR7 (a.k.a. CCXCKR2, hRDC1), was isolated from MCF-7 cells using μMACs mRNA isolation kit (Miltenyi Biotec, Auburn, Calif.). DNA contamination was removed by DNase digestion via RNeasy columns (Qiagen, Inc., Valencia, Calif.) and cDNA was generated using GeneAmp RNA PCR Core Kit (Applied Biosystems, Foster City. Calif.). PCR of cDNA samples was performed using Taq PCR Master Mix kit (Qiagen. Inc.) and hRDC1 primers harboring 5′ and 3′ Not I sites (hRDC1F 5′ […]-3, hRDC1R 5′-[…]-3′) Not I digested PCR product was ligated into Not I digested pcDNA3.1(+)(Invitrogen, Carlsbad, Calif.) and screened for orientation and sequence confirmed. Plasmid DNA was then isolated from overnight bacterial cultures by Maxiprep (Qiagen, Inc.). Plasmid DNA (10 μg) was added to MDA-MB-435s cells and cells were electroporated (0.22 kV, 960 uF) via Gene Pulser (Biorad laboratories, Hercules, Calif.). 48 hr post-electroporation, cells were transferred to selection medium (600 ug/ml G418).
In order to more properly assess the binding efficacy of the compounds, radioligand binding assays were carried out in the presence of 100% human serum to more accurately reflect the in vivo environment. […] Target compounds were tested to determine their ability to bind with CXCR7 sites on MCF-7 and/or MDA-MB-435S CXCR7 transfected cells. Efficiency-maxim/zed radioligand binding using filtration protocols as described in Dairaghi D J, et al., HHV8-encoded vMIP-I selectively engages chemokine receptor CCR5. Agonist and antagonist profiles of viral chemokines., J. Biol. Chem. 1999 Jul. 30; 274(31): 21569-74 and Gosling J, et al., Cutting edge: identification of a novel chemokine receptor that binds dendritic cell- and T cell-active chemokines including ELC, SLC, and TECK, J. Immunol. 2000 Mar. 15; 164(6):2851-6 was used.
In these assays, MCF-7 and/or MDA-MB-435S cells were interrogated with the target compounds and the ability of these compounds to displace 125 I radiolabeled SDF-1 was assessed using the protocol described in Dairaghi and Gosling. The target compounds were added to the plate to the indicated concentration followed by addition of cells and radiolabeled chemokine (125I SDF-1), both in the following medium (human AB serum with 10 mM HEPES added to stabilize at pH 7.4). All assays were then incubated for 3 hrs at 4° C. with gentle agitation.

On to `O=C(N[C@H]1CCN(c2nccn3ccnc23)C1)c1ncn(-c2ccccc2F)n1` [Compound 1.006], for which the half-inhibitory concentration (IC50) is ≤ 500 nM.

In the case of `Cc1ccccc1-c1nc(C(=O)N[C@H]2CCN(c3nccn4cccc34)C2)cs1` [Compound 1.046], the IC50 is ≤ 500 nM. For `O=C(N[C@H]1CCN(c2nccn3cccc23)C1)c1ncc2cc(Cl)ccc2n1` [Compound 1.053], the 50% inhibitory concentration (IC50) was ≤ 500 nM.

For the compound `Cc1cn2cccc2c(N2CC[C@H](NC(=O)c3csc(N4CCCC4)n3)C2)n1` [Compound 1.025], the half-inhibitory concentration (IC50) is ≤ 500 nM. On to `O=C(N[C@H]1CCN(c2nccn3cccc23)C1)c1ncc(C2CCCC2)cn1` [Compound 1.028], for which the IC50 is ≤ 500 nM. In the case of `CCc1cn2cccc2c(N2CC[C@H](NC(=O)c3csc(N4CCC(O)CC4)n3)C2)n1` [Compound 1.012], the half-maximal inhibitory concentration (IC50) is ≤ 500 nM. For `O=C(N[C@H]1CCN(c2nccn3cccc23)C1)c1cn(-c2ccccc2)cn1` [Compound 1.039] the value was ≤ 500 nM; for `O=C(N[C@H]1CCN(c2nccn3ccnc23)C1)c1coc(-c2ccccc2)n1` [Compound 1.070], ≤ 500 nM; for `O=C(NC1(CO)CCN(c2nccn3ccnc23)C1)c1ccn(-c2ccc(F)cc2)n1` (stereo not shown) [Compound 1.059], ≤ 500 nM. For `O=C(N[C@H]1CCN(c2nccn3ccnc23)C1)c1ncn(-c2cccc(F)c2)n1` [Compound 1.016] the value was ≤ 500 nM; for `CN(C)c1cnc(C(=O)N[C@H]2CCN(c3nccn4cccc34)C2)cn1` [Compound 1.049], ≤ 500 nM. For `CC(C)c1cnc(C(=O)N[C@H]2CCN(c3nccn4ccnc34)C2)nc1` [Compound 1.064] the value was ≤ 500 nM; for `Cc1ccc2nc(C(=O)N[C@H]3CCN(c4nccn5ccnc45)C3)ncc2c1` [Compound 1.048], ≤ 500 nM. Turning to `O=C(N[C@H]1CCN(c2nccn3cccc23)C1)c1csc(N2CCCC2)n1` [Compound 1.038], the IC50 is ≤ 500 nM. For `CC(C)c1cn2cccc2c(N2CC[C@H](NC(=O)c3ncn(-c4ccc(F)cc4)n3)C2)n1` [Compound 1.007] the value was 500 to 2500 nM. For `O=C(N[C@H]1CCN(c2nccn3ccnc23)C1)c1ccc(N2CCC(O)CC2)nn1` [Compound 1.011] the value was 2500 to 15000 nM; for `Cc1nc(C(=O)N[C@H]2CCN(c3nccn4ccnc34)C2)nn1-c1ccc(F)cc1` [Compound 1.001], ≤ 500 nM. For `Cc1cnc(C(=O)N[C@H]2CCN(c3nccn4cccc34)C2)nc1` [Compound 1.063] the value was 500 to 2500 nM; for `Cc1cn2cccc2c(N2CC[C@H](NC(=O)c3coc(-c4ccccc4)n3)C2)n1` [Compound 1.024], ≤ 500 nM. With `N#Cc1ccc(-n2cnc(C(=O)N[C@H]3CCN(c4nccn5ccnc45)C3)n2)cc1` [Compound 1.002], the IC50 fell in the range of 2500 to 15000 nM. The same measure for `O=C(N[C@@H]1CCN(c2nccn3ccnc23)C1)c1ncn(-c2ccc(F)cc2)n1` [Compound 1.010]: 500 to 2500 nM; for `CCc1cn2cccc2c(N2CC[C@H](NC(=O)c3ncn(-c4ccccc4)n3)C2)n1` [Compound 1.015]: ≤ 500 nM.

As for `O=C(N[C@H]1CCN(c2nccn3cnnc23)C1)c1coc(-c2ccccc2)n1` [Compound 1.069], the half-inhibitory concentration (IC50) is ≤ 500 nM. The same measure for `O=C(NC1(CO)CCN(c2nccn3ccnc23)C1)c1ncn(-c2ccccc2)n1` (stereo not shown) [Compound 1.050]: ≤ 500 nM. The same measure for `Cc1cn2cccc2c(N2CC[C@H](NC(=O)c3csc(N4CCC(O)CC4)n3)C2)n1` [Compound 1.037]: ≤ 500 nM; for `O=C(N[C@H]1CCN(c2nccn3ccnc23)C1)c1ncn(-c2ccc(F)c(F)c2)n1` [Compound 1.014]: ≤ 500 nM. In the case of `O=C(NC1(CO)CCN(c2nccn3ccnc23)C1)c1csc(N2CCC(O)CC2)n1` (stereo not shown) [Compound 1.058], the IC50 was ≤ 500 nM. As for `O=C(NC1(CO)CCN(c2nccn3cccc23)C1)c1ccn(-c2ccc(F)cc2)n1` (stereo not shown) [Compound 1.073], the 50% inhibitory concentration (IC50) was ≤ 500 nM. The same measure for `O=C(N[C@H]1CCN(c2nccn3cccc23)C1)c1cn(-c2ccccc2)nn1` [Compound 1.017]: ≤ 500 nM; for `O=C(NC1(C(=O)O)CCN(c2nccn3cccc23)C1)c1ccn(-c2ccc(F)cc2)n1` (stereo not shown) [Compound 1.043]: 2500 to 15000 nM. The same measure for `O=C(N[C@H]1CCN(c2nccn3ccnc23)C1)c1csc(N2CCC2)n1` [Compound 1.026]: ≤ 500 nM; for `Cc1cn2cccc2c(N2CC[C@H](NC(=O)c3noc(-c4ccccc4)n3)C2)n1` [Compound 1.021]: ≤ 500 nM; for `CC1(O)CCN(c2nc(C(=O)N[C@H]3CCN(c4nccn5cccc45)C3)cs2)CC1` [Compound 1.055]: ≤ 500 nM. On to `O=C(N[C@H]1CCN(c2nccn3ccnc23)C1)c1csc(N2CCCC2)n1` [Compound 1.034], for which the IC50 was ≤ 500 nM. For `O=C(NC1(CO)CCN(c2nccn3cccc23)C1)c1csc(N2CCC(O)CC2)n1` (stereo not shown) [Compound 1.072] the value was ≤ 500 nM; for `Cc1ccc(-n2cnc(C(=O)N[C@H]3CCN(c4nccn5ccnc45)C3)n2)cc1` [Compound 1.004], 500 to 2500 nM.

Turning to `Cc1ccccc1-n1ccc(C(=O)N[C@H]2CCN(c3nccn4cnnc34)C2)n1` [Compound 1.054], the half-inhibitory concentration (IC50) is ≤ 500 nM. For `CC(C)c1cnc(C(=O)N[C@H]2CCN(c3nccn4cnnc34)C2)nc1` [Compound 1.061] the value was 500 to 2500 nM.

Turning to `Cc1ccc2nc(C(=O)N[C@H]3CCN(c4nc(C)cn5cccc45)C3)ncc2c1` [Compound 1.019], the IC50 was ≤ 500 nM.

On to `CC(C)c1cnc(C(=O)NC2(CO)CCN(c3nccn4cccc34)C2)nc1` (stereo not shown) [Compound 1.060], for which the concentration for half-maximal inhibition (IC50) was ≤ 500 nM. For `CC(C)c1cn2cccc2c(N2CC[C@H](NC(=O)c3csc(N4CCC(O)CC4)n3)C2)n1` [Compound 1.009] the value was ≤ 500 nM; for `Cc1ccc2nc(C(=O)N[C@H]3CCN(c4nccn5cnnc45)C3)ncc2c1` [Compound 1.044], ≤ 500 nM. For `CC1(O)CCN(c2nc(C(=O)N[C@H]3CCN(c4nccn5ccnc45)C3)cs2)CC1` [Compound 1.056] the value was 500 to 2500 nM; for `Cc1cn2cccc2c(N2CC[C@H](NC(=O)c3cn(-c4ccccc4)cn3)C2)n1` [Compound 1.030], ≤ 500 nM. The same measure for `O=C(NC1(CO)CCN(c2nccn3cccc23)C1)c1ncn(-c2ccccc2)n1` (stereo not shown) [Compound 1.051]: ≤ 500 nM. Regarding `CC(O)c1cnc(C(=O)N[C@H]2CCN(c3nccn4cccc34)C2)nc1` (stereo partly shown) [Compound 1.033], the IC50 fell in the range of 500 to 2500 nM.

For the compound `O=C(N[C@H]1CCN(c2nccn3cccc23)C1)c1ncc(C2CC2)cn1` [Compound 1.071], the IC50 is ≤ 500 nM. For `O=C(NC1(CO)CCN(c2nccn3cccc23)C1)c1ccn(-c2ccc(Cl)cc2)n1` (stereo not shown) [Compound 1.074] the value was ≤ 500 nM. In the case of `Cc1cn2cccc2c(N2CC[C@H](NC(=O)c3ncn(-c4ccccc4)n3)C2)n1` [Compound 1.040], the IC50 was ≤ 500 nM. The same measure for `Cc1cn2ccnc2c(N2CC[C@H](NC(=O)c3cn(-c4ccccc4)cn3)C2)n1` [Compound 1.031]: ≤ 500 nM; for `Cc1cn2cccc2c(N2CC[C@H](NC(=O)c3ncn(-c4ccc(F)cc4)n3)C2)n1` [Compound 1.020]: ≤ 500 nM. For `NC(=O)C1(NC(=O)c2ccn(-c3ccc(F)cc3)n2)CCN(c2nccn3cccc23)C1` (stereo not shown) [Compound 1.042] the value was ≤ 500 nM.
